Bounds are passed on as bounds.

The conditions of series [1]: stated in U.S. Pat. No. 1,860,286; cited from earlier work.
A short description of series [2]: Tolerance in the conscious dog, oral. The settings on record: in vivo, read-out: oral doses tolerated (up to). Here is the method:
(§1) No toxic effects or other undesirable effects have been observed with the compounds at doses at which they are active in the above-mentioned tests. Furthermore, as an indication of the lack of toxicity of a specific compound of the invention, namely 2-(2-dimethylamino-2-methylpropylthio)-4-methyl-3-phenylquinoline, that compound is tolerated in both the conscious dog and the marmoset at oral doses of up to 60 mg./kg.

Series [3] can be described thus: Tolerance in the marmoset, oral. The settings on record: in vivo, read-out: oral doses tolerated (up to). Here is the method:
as §1

With `CCN(CC)CCOc1nc2ccccc2cc1-c1ccccc1` [2-(2-diethylaminoethoxy)-3-phenylquinoline], the antipyretic activity entry in series [1] is on record as “exhibits antipyretic activity”.
With `Cc1c(-c2ccccc2)c(SCC(C)(C)N(C)C)nc2ccccc12.O=C(O)/C=C/C(=O)O.O=C(O)/C=C/C(=O)O` [Example 3, 2-(2-dimethylamino-2-methylpropylthio)-4-methyl-3-phenylquinoline difumarate], the MTD in series [2] and in series [3] was no less than 60 mg/kg throughout.

The values are drawn from patent US4607039A, “Quinoline derivatives which are 5-hydroxytryptamine antagonists” (Imperial Chemical Industries PLC, priority 1982, dated 1986).
